Results taken from article PMC11157481, “Mechanochemical Synthesis of New Praziquantel Cocrystals: Solid-State Characterization and Solubility” (Crystal Growth & Design, 2024).
Read-outs that look alike come from different tables or passages of the source.

Experiment: Equilibrium solubility by the shake-flask method with HPLC-UV analysis
Format: physicochemical
Conditions: for [PZQ] in SCF attained in 24 hours / [PZQ] in SGF attained in 24 hours / [PZQ] in SIF attained in 24 hours / [PZQ] in H2O attained in 24 hours / solubility thermodynamic at 24 h: shake-flask; for [PZQ] in SCF attained in 24 hours / [PZQ] in SGF attained in 24 hours / [PZQ] in SIF attained in 24 hours / [PZQ] in H2O attained in 24 hours: n = 3; for Increase in solubility in SIF compared to PZQ alone: 24 h, relative to pure PZQ; for solubility thermodynamic at 24 h: thermodynamic from solid
Description: The stock solution of PZQ (2 mg/mL) was prepared by dissolving the pure compound in MeCN. Corresponding aliquots were diluted with the same solvent for the preparation of working PZQ solutions. Samples of 10 μL were injected into the chromatographic system. […] Ultrapure water was used as the reference dissolution medium. The solubility of the obtained PZQ cocrystals was determined by the shake-flask method. Briefly, excess PZQ and PZQ cocrystals (the corresponding amount of 6 mg of PZQ) were added to 2 mL vials containing 2 mL of the dissolution medium. The slurry samples were placed in an orbital shaker to achieve uniform mixing at 37 °C for 24 h. At different time intervals (10, 20, 30, 40, 50, 60, and 90 min), an aliquot of 200 μL of each sample was collected after centrifugation, filtered, and analyzed concerning the PZQ content by HPLC-UV analysis.
The solubilities of each cocrystal and PZQ were tested in ultrapure water and the three dissolution media, simulating the biorelevant fluids present along the entire gastrointestinal tract, namely, SGF (simulated gastric fluid), SIF (simulated intestinal fluid), and SCF (simulated colonic fluid).

[1] = simulated colonic fluid pH 7.8, 37 °C
[2] = simulated gastric fluid pH 1.5, 37 °C
[3] = simulated intestinal fluid pH 7.4, 37 °C

With `O=C(C1CCCCC1)N1CC(=O)N2CCc3ccccc3C2C1.O=C(C1CCCCC1)N1CC(=O)N2CCc3ccccc3C2C1.O=C(O)c1cccc(O)c1` (stereo not drawn) [Co-Crystal 9, PZQ – 3-HYDROXYBENZOIC ACID (3HBA) (2:1)] the “[PZQ] in SCF attained in 24 hours” value [1] was 257.95 µg/mL, the “[PZQ] in SGF attained in 24 hours” value [2] was 231.45 µg/mL and the “[PZQ] in SIF attained in 24 hours” value [3] was 226.47 µg/mL. For the same compound, the “[PZQ] in H2O attained in 24 hours” value (ultrapure water, 37 °C) was 248.12 µg/mL.
In the case of “PZQ – TRIMESIC ACID (TRI) – H2O [Co-Crystal 4]”, the “Increase in solubility in SIF compared to PZQ alone” value (“Increase in solubility in SIF” below) is reported as 1.26 fold, the “[PZQ] in SCF attained in 24 hours” value [1] is reported as 193.95 µg/mL and the “[PZQ] in SGF attained in 24 hours” value [2] is reported as 44.98 µg/mL. The “[PZQ] in SIF attained in 24 hours” value [3] was 242.32 µg/mL and the “[PZQ] in H2O attained in 24 hours” value (ultrapure water, 37 °C) was 56.09 µg/mL.
With `O=C(C1CCCCC1)N1CC(=O)N2CCc3ccccc3C2C1.O=C(O)c1ccc(O)cc1` (stereo not drawn) [Co-Crystal 5, PZQ – 4-HYDROXYBENZOIC ACID (4HBA)] the “[PZQ] in SCF attained in 24 hours” value [1] was 247.22 µg/mL, the “[PZQ] in SGF attained in 24 hours” value [2] was 203.21 µg/mL and the “[PZQ] in SIF attained in 24 hours” value [3] was 217.86 µg/mL. The “[PZQ] in H2O attained in 24 hours” value (ultrapure water, 37 °C) was 225.06 µg/mL.
For `O.O=C(C1CCCCC1)N1CC(=O)N2CCc3ccccc3C2C1.O=C(O)c1ccccc1O` (stereo not drawn) [Co-Crystal 6, PZQ – SALICYLIC ACID (SAL) – H2O], the “[PZQ] in SCF attained in 24 hours” value [1] was 258.43 µg/mL, the “[PZQ] in SGF attained in 24 hours” value [2] was 202.80 µg/mL and the “[PZQ] in SIF attained in 24 hours” value [3] was 246.81 µg/mL. For the same compound, the “[PZQ] in H2O attained in 24 hours” value (ultrapure water, 37 °C) was 220.38 µg/mL.
For `O=C(C1CCCCC1)N1CC(=O)N2CCc3ccccc3C2C1.O=C(O)C(=O)O` (stereo not drawn) [Co-Crystal 8, PZQ – OXALIC ACID (OXA)], the “[PZQ] in SCF attained in 24 hours” value [1] was 252.98 µg/mL, the “[PZQ] in SGF attained in 24 hours” value [2] was 238.78 µg/mL and the “[PZQ] in SIF attained in 24 hours” value [3] was 229.26 µg/mL. For the same compound, the “[PZQ] in H2O attained in 24 hours” value (ultrapure water, 37 °C) was 250.12 µg/mL.
In the case of “PZQ – 5-HYDROXYISOPHTHALIC ACID (5HIP) – MeCN [Co-Crystal 1]”, the “Increase in solubility in SIF” value is reported as 1.87 fold, the “[PZQ] in SCF attained in 24 hours” value [1] is reported as 122.86 µg/mL and the “[PZQ] in SGF attained in 24 hours” value [2] is reported as 85.70 µg/mL. The “[PZQ] in SIF attained in 24 hours” value [3] was 361.00 µg/mL and the “[PZQ] in H2O attained in 24 hours” value (ultrapure water, 37 °C) was 95.51 µg/mL.
For `O=C(C1CCCCC1)N1CC(=O)N2CCc3ccccc3C2C1` (stereo not drawn) [Co-Crystal 12, praziquantel], the solubility thermodynamic at 24 h (simulated colonic fluid (SCF), fassgf or other biorelevant, simulated colonic fluid pH 7.8, 37 °C, n = 3, read-out: [PZQ] in SCF attained in 24 hours) was 220 µg/mL, the solubility thermodynamic at 24 h (simulated gastric fluid (SGF), simulated gastric fluid pH 1.5, 37 °C, n = 3, read-out: [PZQ] in SGF attained in 24 hours) was 200 µg/mL and the solubility thermodynamic at 24 h (simulated intestinal fluid (SIF), fassgf or other biorelevant, simulated intestinal fluid pH 7.4, 37 °C, n = 3, read-out: [PZQ] in SIF attained in 24 hours) was 193 µg/mL. The solubility thermodynamic at 24 h (ultrapure water, 37 °C, n = 3, read-out: [PZQ] in H2O attained in 24 hours) was 211 µg/mL.
For `O=C(C1CCCCC1)N1CC(=O)N2CCc3ccccc3C2C1.O=C(O)c1cccc(O)c1` (stereo not drawn) [Co-Crystal 7, PZQ – 3-HYDROXYBENZOIC ACID (3HBA) (1:1)], the “Increase in solubility in SIF” value was 1.2 fold, the “[PZQ] in SCF attained in 24 hours” value [1] was 251.67 µg/mL and the “[PZQ] in SGF attained in 24 hours” value [2] was 214.21 µg/mL. The “[PZQ] in SIF attained in 24 hours” value [3] was 232.31 µg/mL and the “[PZQ] in H2O attained in 24 hours” value (ultrapure water, 37 °C) was 252.60 µg/mL.
With “PZQ – 4-AMINOSALICYLIC ACID (4ASA) – MeCN [Co-Crystal 3]” the “[PZQ] in SCF attained in 24 hours” value [1] was 294.31 µg/mL, the “[PZQ] in SGF attained in 24 hours” value [2] was 323.31 µg/mL and the “[PZQ] in SIF attained in 24 hours” value [3] was 264.29 µg/mL. The “[PZQ] in H2O attained in 24 hours” value (ultrapure water, 37 °C) was 278.89 µg/mL.
